From the NIST ThermoML archive (doi:10.1016/j.fluid.2019.03.019) come the findings set out here.

± gives the expanded uncertainty stated by the source.

One may read the mass density as mass per unit of volume. One may read the vapor or sublimation pressure as the pressure of vapour in equilibrium with the condensed phase.

The conditions of the data set: Liquid; for mass density: 298.15 K, 101.33 kPa, Vibrating tube method; for vapor or sublimation pressure: Closed cell (Static) method.

Regarding `COC(=O)OC` [dimethyl carbonate], the mass density stood at 1063.24 ± 0.1 kg/m3. For the same molecule, where the note is “383.15 K”, the “vapor or sublimation pressure” value was determined as 187 ± 6 kPa. Moreover, the “vapor or sublimation pressure” value (403.15 K) stood at 320 ± 6 kPa. Further, under “413.15 K”, the “vapor or sublimation pressure” value came out at 414 ± 6 kPa.

With `CCO` [ethanol], the mass density came out at 785.09 ± 0.13 kg/m3. For the same molecule, where the note is “393.15 K”, the “vapor or sublimation pressure” value was 429 ± 7 kPa.

Consider `CO` [methanol], for which the mass density is reported as 786.42 ± 0.13 kg/m3. Under “362.65 K”, the “vapor or sublimation pressure” value worked out at 251 ± 6 kPa. In addition, the “vapor or sublimation pressure” value (363.15 K) was 255 ± 6 kPa. Besides, where the note is “383.15 K”, the “vapor or sublimation pressure” value came out at 481 ± 6 kPa. For the setting “391.95 K”, the “vapor or sublimation pressure” value turned out to be 618 ± 6 kPa. The “vapor or sublimation pressure” value (392.95 K) was determined as 636 ± 7 kPa. In addition, the “vapor or sublimation pressure” value (393.15 K) came out at 640 ± 7 kPa. Moreover, where the note is “403.15 K”, the “vapor or sublimation pressure” value stood at 843 ± 7 kPa. Besides, the “vapor or sublimation pressure” value (413.15 K) was 1092 ± 7 kPa. In addition, where the note is “420.95 K”, the “vapor or sublimation pressure” value amounted to 1316 ± 7 kPa. Moreover, where the note is “422.95 K”, the “vapor or sublimation pressure” value is 1380 ± 8 kPa. For the setting “423.15 K”, the “vapor or sublimation pressure” value is 1387 ± 8 kPa.

As to `O` [water], the “vapor or sublimation pressure” value (393.15 K) was determined as 199 ± 6 kPa.
